# Laboratory results: US6066642A, “Dihydropyridine-, pyridine-, benzopyran-4-one- and triazoloquinazoline derivative, their preparation and their use as adenosine receptor antagonists” (priority 1998, dated 2000)
# Molecular target: T1, A2a receptors (Rattus norvegicus, UniProt P30543)
# T1 construct: Displacement of specific [^3 H]; from tissue; host or cells: rat striatal membranes
# Test: radioligand binding, displacement of specific [3H]CGS 21680 binding in rat striatal membranes
# Details: Table 3; [3H]CGS 21680, rat striatal membranes; read-out: Ki rA2a
# Description: ^b Displacement of specific [^3 H]
# or as a percentage of specific binding displaced at 100 μM.
# T1 sequence (P30543 whole entry): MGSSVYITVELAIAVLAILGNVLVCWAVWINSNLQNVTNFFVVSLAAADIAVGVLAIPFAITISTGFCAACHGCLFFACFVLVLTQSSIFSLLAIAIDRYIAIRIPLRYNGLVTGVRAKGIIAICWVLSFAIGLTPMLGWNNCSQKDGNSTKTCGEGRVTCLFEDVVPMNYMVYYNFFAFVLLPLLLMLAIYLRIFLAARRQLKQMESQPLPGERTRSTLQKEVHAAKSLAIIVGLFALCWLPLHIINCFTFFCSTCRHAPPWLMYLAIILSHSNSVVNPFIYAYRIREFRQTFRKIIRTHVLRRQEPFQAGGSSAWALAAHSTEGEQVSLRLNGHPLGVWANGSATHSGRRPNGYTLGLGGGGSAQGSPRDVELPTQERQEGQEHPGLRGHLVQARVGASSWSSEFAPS
row,Molecule,Ki [µM]
1,"CCOc1cc(O)c2c(=O)c(OCC)c(-c3ccccc3)oc2c1 [Compound 3b, 3,7-Diethoxy-5-hydroxyflavone]",63.8 ± 18.8

# Same assay, conditions: Table 6; [3H]CGS 21680, rat striatal membranes; read-out: K2 (rA2a)
row,Molecule,Ki [µM]
1,"O=c1c(O)c(-c2ccc(O)c(O)c2)oc2cc(O)cc(O)c12 [Compound 37, quercetin, reference compound]",6.99 ± 0.89

# Same assay, conditions: Table 9; 10^-4 M; read-out: % of specific binding displaced rA2A
row,inhibition at 100 µM [%],Molecule
1,19,"COCCOC(=O)C1=C(C)NC(C)=C(C(=O)OC)C1C (racemic) [Compound 53, 3-methyl,5-(2-methoxy)ethyl 2,4,6-trimethyl-1,4(R,S)-dihydropyridine-3,5-dicarboxylate]"

# Same assay, conditions: Table 9; [3H]CGS 21680, rat striatal membranes; read-out: Ki rA2A
row,Ki [µM],Molecule
1,9.72,"COC(=O)C1=C(C)NC(C)=C(C(=O)OCc2ccccc2)C1C (racemic) [Compound 54, 3-methyl,5-benzyl 2,4,6-trimethyl-1,4(R,S)-dihydropyridine-3,5-dicarboxylate]"
2,9.56 ± 2.69,"CCOC(=O)C1=C(C)NC(C)=C(C(=O)OC)C1CC (racemic) [Compound 56, 3-Methyl-5-ethyl-2,6-dimethyl-4-ethyl-1,4(R,S)-dihydropyridine-3,5-dicarboxylate]"
3,11.5,"CCCC1C(C(=O)OC)=C(C)NC(C)=C1C(=O)OCC (racemic) [Compound 57, 3-methyl,5-ethyl 2,6-dimethyl-4-propyl-1,4(R,S)-dihydropyridine-3,5-dicarboxylate]"
4,23.1,CCOC(=O)C1=C(C)NC(C)=C(C(=O)OC)C1CC(C)CCC=C(C)C (racemic) [Compound 58]
5,20.7,"CCOC(=O)C1=C(C)NC(C)=C(C(=O)OC)C1c1ccccc1C(F)(F)F (racemic) [Compound 68, 3-methyl-5-ethyl-2,6-dimethyl-4-(2-α,α,α-trifluoromethylphenyl)-1,4(R,S)-dihydropyridine-3,5-dicarboxylate]"
6,12.7 ± 3.8,"CCOC(=O)C1=C(C)NC(C)=C(C(=O)OC)C1c1ccc(OC)cc1 (racemic) [Compound 71, 3-methyl-5-ethyl-2,6-dimethyl-4-(4-methoxyphenyl)-1,4(R,S)-dihydropyridine-3,5-dicarboxylate]"
7,56.8 ± 1.9,"CCOC(=O)C1=C(C)NC(C)=C(C(=O)OC)C1c1ccc(O)c(OC)c1 (racemic) [Compound 72, 3-methyl-5-ethyl-2,6-dimethyl-4-(4-hydroxy,3-methoxyphenyl)-1,4(R,S)-dihydropyridine-3,5-dicarboxylate]"
8,38 ± 10.6,"CCCCC1=C(C(=O)OCC)C(C)C(C(=O)OCC)=C(C)N1 (racemic) [Compound 77, 3,5-diethyl-2,4-dimethyl-6-butyl-1,4(R,S)-dihydropyridine-3,5-dicarboxylate]"
9,35.9,"CCOC(=O)C1=C(C)NC(c2ccccc2)=C(C(=O)OCC)C1C (racemic) [Compound 78, 3,5-diethyl-2,4-dimethyl-6-phenyl-1,4(R,S)-dihydropyridine-3,5-dicarboxylate]"
10,7.1,CCOC(=O)C1=C(C)NC(C)=C(C(=O)OCCCSc2ccccc2)C1C (centres unmarked) [Compound 55]
11,18.2,CCOC(=O)C1=C(C)NC(C)=C(C(=O)OCC)C1c1cccc([N+](=O)[O-])c1 [Compound 62]
12,6.71 ± 2.06,CCOC(=O)C1=C(C)NC(C)=C(C(=O)OC)C1CCc1ccccc1 (centres unmarked) [Compound 74]

row,Molecule,Ki [µM]
1,"CCOC(=O)C1=C(C)NC(C)=C(C(=O)OC)C1C (racemic) [Compound 52, 3-Methyl-5-ethyl 2,4,6-trimethyl-1,4(R,S)-dihydropyridine-3,5-dicarboxylate]",> 100

# Same assay, conditions: Table 11; [3H]CGS 21680, rat striatal membranes; read-out: Ki rA2A
row,Ki [µM],Molecule
1,2.6,CCOC(=O)c1c(C)nc(-c2ccccc2)c(C(=O)OCC)c1/C=C/c1ccccc1 [A]

# Same assay, conditions: Table 12; 10^-4 M
row,% inhibition rA2A [%],Molecule
1,36,"3,5-Diethyl 2,6-dimethyl-4-(2-thienyl)-1,4-(±)-dihydropyridine-3,5-dicarboxylate [Compound 114]"

# Same assay, conditions: Table 12; 10^-4 M; read-out: % inhibition rA2A
row,Molecule,inhibition at 100 µM [%]
1,"CCOC(=O)C1=C(c2ccccc2)NC(C)=C(C(=O)OC[C@H](OC)c2ccccc2)C1C#Cc1ccccc1 (mixture of isomers) [Compound 128, 3-(2-Methoxy-2-phenyl)-ethyl 5-Ethyl 2-methyl-4-phenylethynyl-6-phenyl-1.4-(±)-dihydropyridine-3,5-dicarboxylate]",33
2,"CCOC(=O)C1=C(C)NC(c2ccccc2)=C(C(=O)OCC)C1c1ccccn1 (racemic) [Compound 111, 3,5-Diethyl 2-methyl-4-(2-pyridyl)-6-phenyl-1,4-(±)-dihydropridine-3,5-dicarboxylate]",25
3,"CCOC(=O)C1=C(C)NC(c2ccccc2)=C(C(=O)OCC)C1c1cccnc1 (racemic) [Compound 112, 3,5-Diethyl 2-methyl-4-(3-pyridyl)-6-phenyl-1,4-(±)-dihydropridine-3,5-dicarboxylate]",40
4,"CCOC(=O)C1=C(C)NC(c2ccccc2)=C(C(=O)OCC[Si](C)(C)C)C1C#Cc1ccccc1 (racemic) [Compound 129, 3-Ethyl 5-(2-trimethylsilyl)-ethyl 2-methyl-4-phenylethynyl-6-phenyl-1,4-(±)-dihydropyridine-3,5-dicarboxylate]",18 ± 5
5,"CCOC(=O)C1=C(C)NC(c2ccccc2)=C(C(=O)SCC)C1C#Cc1ccccc1 (racemic) [Compound 130a, 3-Ethyl 5-thioethyl 2-methyl-4-phenylethynyl-6-phenyl-1,4(±)-dihydropyridine-3,5-dicarboxylate]",17
6,"CCNC(=O)C1=C(c2ccccc2)NC(C)=C(C(=O)OCC)C1C#Cc1ccccc1 (racemic) [Compound 132, 3-Ethoxycarbonyl-2-methyl-4-phenylethynyl-6-phenyl-1,4(±)-dihydropyridine-5-carboxylic ethyl amide]",47
7,"CCOC(=O)C1=C(c2ccccc2)NC(C)=C(C(=O)OC(C)(C)C)C1C#Cc1ccccc1 (racemic) [Compound 133, 3-t-Butyl 5-ethyl 2-methyl-4-phenylethynyl-6-phenyl-1,4-(±)-dihydropyridine-3,5-dicarboxylate]",20 ± 2
8,"CCNC(=O)C1=C(C)NC(c2ccccc2)=C(C(=O)OCC)C1C#Cc1ccccc1 (racemic) [Compound 134, 5-Ethoxycarbonyl-2-methyl-4-phenylethynyl-6-phenyl-1,4-(±)-dihydropyridine-3-carboxylic ethyl amide]",19 ± 6
9,"CCOC(=O)C1=C(c2ccccc2)NC2=C(C(=O)CCC2)C1C#Cc1ccccc1 (racemic) [Compound 136, Ethyl 3-oxo-1,4,5,6,7,8-hexahydroquinoline-2-methyl-4-phenylethynyl-6-phenyl-1,4-±-dihydropyridin-5-carboxylate]",22 ± 4

# Same assay, conditions: Table 12; 10^-4 M; read-out: displacement of specific binding rA2A
row,Molecule,inhibition at 100 µM [%]
1,"CCOC(=O)C1=C(C)NC(c2ccccc2)=C(C(=O)OCC)C1c1ccccc1 (racemic) [Compound 110, 3,5-Diethyl 2-methyl-4,6-diphenyl-1,4-(±)-dihydropyridine-3,5-dicarboxylate]",< 10
2,"CCOC(=O)C1=C(C)NC(c2ccccc2)=C(C(=O)OCC)C1c1cc2ccccc2o1 (racemic) [Compound 116, 3,5-Diethyl 2-methyl-4-(2-benzofuryl)-6-phenyl-1,4-(±)-dihydropridine-3,5-dicarboxylate]",< 10

# Same assay, conditions: Table 12; [3H]CGS 21680, rat striatal membranes; read-out: Ki rA2A
row,Molecule,Ki [µM]
1,"CCOC(=O)C1=C(C)NC(c2ccccc2)=C(C(=O)OCC)C1c1ccncc1 (racemic) [Compound 113, 3.5-Diethyl 2-methyl-4-(4-pyridyl)-6-phenyl-1,4(±)-dihydropyridine-3.5-dicarboxylate]",44.7 ± 3.7

# Same assay, conditions: read-out: % inhibition rA2A
row,Molecule,inhibition at 100 µM [%]
1,CCOC(=O)C1=C(C)NC(c2ccccc2)=C(C(=O)OCC)C1C#Cc1ccccc1 (racemic) [Compound 98],26
2,CCOC(=O)C1=C(c2ccccc2)NC(C)=C(C(C)=O)C1C#Cc1ccccc1 (racemic) [Compound 135],17 ± 7
